Test results published in article PMC9133015 (Nature Communications, 2022).
Several values for one entry are separate records, joined by “and”; a condition that tells them apart may be missing. Equal entries are not always repeated.

What was measured:
[1] = system: DU145 cells; assay: Anti-proliferation activity assay (CCK8, 72 h); format: cell-based, human; conditions: DU145, replicates
[2] = system: PC-3 cells; assay: Anti-proliferation activity assay (CCK8, 72 h); format: cell-based, human; conditions: PC-3, replicates
[3] = system: 22Rv1 cells; assay: Anti-proliferation activity assay (CCK8, 72 h); format: cell-based, human; conditions: 22Rv1, replicates
[4] = system: RWPE-1 cells; assay: Anti-proliferation activity assay (CCK8, 72 h); format: cell-based; conditions: RWPE1, replicates
[5] = system: PC-3 cells; assay: Cell growth assay (5-day course); format: cell-based, human; conditions: PC-3, 40 µM, replicates
[6] = system: 22Rv1 cells; assay: Colony formation assay; format: cell-based, human; conditions: 22Rv1, 20 μM, replicates
[7] = system: DU145 cells; assay: Colony formation assay; format: cell-based, human; conditions: DU145, 40 μM, replicates
[8] = system: PC-3 cells; assay: Colony formation assay; format: cell-based, human; conditions: 40 µM, replicates
[9] = system: 22Rv1 cells; assay: Migration assay (transwell); format: cell-based, human; conditions: 22Rv1, 20 μM, replicates
[10] = system: DU145 cells; assay: Migration assay (transwell); format: cell-based, human; conditions: DU145, 40 μM, replicates
[11] = system: PC-3 cells; assay: Migration assay (transwell); format: cell-based, human; conditions: PC-3; 40 µM; replicates
[12] = system: DU145 cells; assay: Invasion assay (transwell); format: cell-based, human; conditions: DU145, 40 μM, replicates
[13] = system: PC-3 cells; assay: Invasion assay (transwell); format: cell-based, human; conditions: PC-3; 40 µM; replicates
[14] = system: 22Rv1 cells; assay: Invasion assay (transwell); format: cell-based, human; conditions: 22Rv1, 20 μM, replicates
[15] = system: 22Rv1 cells; assay: Apoptosis assay (Annexin V-APC/PI flow cytometry); format: cell-based, human; conditions: 22Rv1, 20 μM, replicates
[16] = system: DU145 cells; assay: Apoptosis assay (Annexin V-APC/PI flow cytometry); format: cell-based, human; conditions: DU145, 40 μM, replicates
[17] = system: PC-3 cells; assay: Apoptosis assay (Annexin V-APC/PI flow cytometry); format: cell-based, human; conditions: PC-3; 40 µM; replicates
[18] = system: 22Rv1 cells; assay: Cell cycle assay (PI flow cytometry); format: cell-based, human; conditions: 22Rv1, 20 μM, replicates
[19] = system: DU145 cells; assay: Cell cycle assay (PI flow cytometry); format: cell-based, human; conditions: DU145, 40 μM, replicates
[20] = system: PC-3 cells; assay: Cell cycle assay (PI flow cytometry); format: cell-based, human; conditions: PC-3, 40 µM, replicates
[21] = system: DU145 xenograft; assay: In vivo antitumor activity, DU145 xenograft mouse model; set-up: species or system BALB/c nude mice; conditions: for Tumor volume (Fig. 7a): individual mice 1-10, in cm³ (unit assumed)
[22] = system: DU145 xenograft; assay: H&E and Ki67 staining of xenograft tumor tissues; format: in vivo, BALB/c nude mice; conditions: DU145, reference drug groups, replicates

CNC(=O)c1ccc(N2C(=S)N(c3ccc(C#N)c(C(F)(F)F)c3)C(=O)C2(C)C)cc1F [enzalutamide]
optical density ([1]; 2.5 uM): 1.167 and 1.145 and 1.124 | optical density ([1]; 5 uM): 1.127 and 1.118 and 1.073 | optical density ([1]; 10 uM): 1.073 and 1.05 and 1.035 | optical density ([1]; 20 uM): 0.93 and 0.926 and 0.882 | optical density ([1]; 40 uM): 0.602 and 0.626 and 0.546 | optical density ([1]; 80 uM): 0.325 and 0.374 and 0.256 | optical density ([2]; 2.5 uM): 1.074 and 1.037 and 1.019 | optical density ([2]; 5 uM): 1.05 and 1.004 and 0.976 | optical density ([2]; 10 uM): 1.021 and 0.964 and 0.924 | optical density ([2]; 20 uM): 0.935 and 0.906 and 0.894 | optical density ([2]; 40 uM): 0.769 and 0.721 and 0.688 | optical density ([2]; 80 uM): 0.516 and 0.456 and 0.403 | optical density ([3]; 2.5 uM): 0.81 and 0.838 and 0.791 | optical density ([3]; 5 uM): 0.775 and 0.808 and 0.759 | optical density ([3]; 10 uM): 0.619 and 0.678 and 0.623 | optical density ([3]; 20 uM): 0.455 and 0.528 and 0.472 | optical density ([3]; 40 uM): 0.22 and 0.347 and 0.272 | optical density ([3]; 80 uM): 0.191 | optical density ([4]; 2.5 uM): 0.992 and 1.025 and 0.996 | optical density ([4]; 5 uM): 0.949 and 0.989 and 0.956 | optical density ([4]; 10 uM): 0.858 and 0.962 and 0.898 | optical density ([4]; 20 uM): 0.786 and 0.838 and 0.802 | optical density ([4]; 40 uM): 0.517 and 0.686 and 0.593 | optical density ([4]; 80 uM): 0.393 and 0.433 and 0.408 | optical density ([5]; day 0): 0.269 | optical density ([5]; day 1): 0.288 and 0.29 and 0.285 | optical density ([5]; day 2): 0.517 and 0.519 and 0.473 | optical density ([5]; day 3): 0.701 and 0.705 and 0.6 | optical density ([5]; day 4): 1.438 and 1.323 and 1.218 | Colony formation (cell number) [6]: 560 cell number and 530 cell number and 570 cell number | Colony formation (cell number) [7]: 205 cell number and 218 cell number and 226 cell number | Colony formation (cell number) [8]: 160 cell number and 145 cell number | Cell migration (cell number) [9]: 1459 cell number and 1378 cell number and 1390 cell number | Cell migration (cell number) [10]: 4002 cell number and 3988 cell number and 4105 cell number | Cell migration (cell number) [11]: 1100 cell number and 1076 cell number and 923 cell number | Cell invasion (cell number) [12]: 1897 cell number and 1923 cell number and 1867 cell number | Cell invasion (cell number) [13]: 2300 cell number and 2405 cell number and 2379 cell number | Cell invasion (cell number) [14]: 1680 cell number and 1543 cell number | Apoptosis (%) [15]: 4.36% and 5.45% and 6.23% | Apoptosis (%) [16]: 11.89% and 10.52% and 9.68% | Apoptosis (%) [17]: 5.39% and 5.46% and 5.82% | Cell cycle percentages ( % ) G0/G1 [18]: 69.98% and 71.27% and 73.69% | Cell cycle percentages ( % ) G2/M [18]: 14.06% and 12.61% and 11.06% | Cell cycle percentages ( % ) S [18]: 15.96% and 16.12% and 15.25% | Cell cycle percentages ( % ) G0/G1 [19]: 57.27% and 58.94% and 59.05% | Cell cycle percentages ( % ) G2/M [19]: 23.68% and 22.3% and 24.16% | Cell cycle percentages ( % ) S [19]: 19.05% and 18.76% and 16.79% | Cell cycle percentages ( % ) G0/G1 ([20]; G0/G1): 70.26% and 71.93% and 73.13% | Cell cycle percentages ( % ) G2/M ([20]; G2/M): 18.02% and 17.63% and 16.26% | Cell cycle percentages ( % ) S ([20]; S): 11.72% and 10.44% and 10.61% | antitumor activity (in words) ([21]; DU145 xenograft, 100 mg/kg orally once a day, seven weeks): only delayed the tumor growth | Tumor volume (Fig. 7a) ([21]; Day 1): 0.06831 and 0.0728 and 0.08842 and 0.07149 and 0.08267 and 0.0792 and 0.07365 and 0.09986 and 0.09475 and 0.08367 | Tumor volume (Fig. 7a) ([21]; Day 3): 0.1054 and 0.1066 and 0.1367 and 0.1112 and 0.1273 and 0.1097 and 0.1065 and 0.1474 and 0.1553 and 0.1239 | Tumor volume (Fig. 7a) ([21]; Day 5): 0.1354 and 0.1343 and 0.1923 and 0.144 and 0.1749 and 0.1417 and 0.1334 and 0.2305 and 0.2202 and 0.1878 | Tumor volume (Fig. 7a) ([21]; Day 7): 0.1816 and 0.1822 and 0.2496 and 0.1945 and 0.234 and 0.2013 and 0.2322 and 0.3186 and 0.2993 and 0.2348 | Tumor volume (Fig. 7a) ([21]; Day 9): 0.236 and 0.2398 and 0.2946 and 0.2457 and 0.337 and 0.2675 and 0.2935 and 0.3821 and 0.38 and 0.3125 | Tumor volume (Fig. 7a) ([21]; Day 11): 0.2749 and 0.3065 and 0.4056 and 0.2756 and 0.3984 and 0.3105 and 0.3205 and 0.5039 and 0.4644 and 0.382 | Tumor volume (Fig. 7a) ([21]; Day 13): 0.3292 and 0.3636 and 0.3775 and 0.3177 and 0.4798 and 0.3714 and 0.3893 and 0.5706 and 0.5218 and 0.4116 | Tumor volume (Fig. 7a) ([21]; Day 15): 0.4104 and 0.4397 and 0.4958 and 0.3678 and 0.5629 and 0.4479 and 0.4493 and 0.6357 and 0.6164 and 0.4936 | Tumor volume (Fig. 7a) ([21]; Day 17): 0.473 and 0.4645 and 0.5899 and 0.4301 and 0.6355 and 0.511 and 0.4922 and 0.7115 and 0.6607 and 0.5477 | Tumor volume (Fig. 7a) ([21]; Day 19): 0.458 and 0.4883 and 0.6303 and 0.4489 and 0.6566 and 0.5391 and 0.5247 and 0.7614 and 0.6322 and 0.6372 | Tumor weight (Fig. 7c) ([21]; reference drug groups, individual mice, in g (unit assumed)): 1.15 and 1.34 and 1.28 and 1.42 and 1.33 and 1.5 and 1.37 and 1.08 and 1.22 and 1.16 | Positive rate ( % ) (Fig. 7f) [22]: 30.71% and 31.3% and 29.1%
